Measurements reported in US20230404989A1, “GRK2 INHIBITION BY PAROXETINE AMELIORATES OSTEOARTHRITIS” (THE PENN STATE RESEARCH FOUNDATION, priority 2020, published 2023).

Legend:
human OA cartilage = assay: Ex vivo cultured human OA osteochondral plugs: IF staining and RT-qPCR; type: cell-based; conditions: paroxetine 5 μM or gallein 10 μM, 48 hrs
From the text: An Institutional Review Board-approved protocol was executed to collect discarded de-identified cartilage from patients. For the experiment described in FIG. 3A, we obtained acutely injured human cartilage (from patients undergoing arthroscopic surgery 4 weeks following meniscal injury, N=6) and OA cartilage (from patients undergoing arthroplasty, N=6). Normal controls were obtained from amputees' knees (N=6). Cartilage was fixed in formalin then processed and embedded in paraffin, 5-μm sections were used for immunofluorescence (IF) staining. For the experiment described in FIG. 7, OA osteochondral tissue was collected from patients undergoing total knee arthroplasty. Osteochondral plugs (8-mm diameter) were obtained and bone was flushed with saline solution to remove all bone marrow and blood cells. Plugs were then cultured overnight in low glucose DMEM at 5% CO2 and 37° C. The next morning plugs were treated with either vehicle phosphate buffer saline (PBS), paroxetine (5 μM), or gallein (10 μM), and the drug-containing culture medium was replenished after 24 hrs. After 48 hrs, plugs were fixed for 7 days in 10% neutral buffered formalin (NBF), decalcified for 2 weeks in 10% w/v EDTA, embedded in paraffin, and […] were cut and mounted for histological and IF staining. Alternatively, the cartilage was shaved from plugs and flash-frozen in liquid nitrogen for RNA extraction as described below. mRNA was isolated from human cartilage using the method we published recently, yielding RNA Integrity Number (RIN) values above 7.0 (53). cDNA was prepared using Iscript cDNA synthesis kit from Bio-rad following the manufacturer's protocol. cDNAs were qPCR amplified using TaqMan Gene Expression Assays, with GAPDH as the house keeping gene (ThermoFisher Scientific; described in Table 2) and the 7500 Fast Real-Time PCR System (Applied Biosystems). Paraffin sections were deparaffinized in three changes of xylene for five minutes each, rehydrated in ethanol (two changes of 100% ethanol, followed by two changes of 95% ethanol, followed by one change of 70% ethanol) and rinsed twice in deionized water. Antigen retrieval was performed for 30 minutes at 37° C. using 0.4% pepsin (Sigma P-7000) in 0.1M hydrochloric acid (HCl) and was followed by permeabilization for 30 minutes at room temperature using Triton X in tris buffered saline (TBS). Sections were then blocked for 1 hour at room temperature in 10% normal goat serum in 1×TBS. Tissue sections were incubated overnight at 4° C. with the rabbit anti-mouse primary antibody specific for the target protein (detailed in Table 1).

DMM mice [1] = assay: Micro-CT assessment of knee joint and subchondral bone in DMM mice; type: in vivo, mouse; conditions: daily ip week 8 to 12
Procedure: Drug treatment studies: In twelve-week old male wild type C57BL/6 mice that received DMM surgeries, vehicle (PBS), paroxetine (5 mg/kg/day), fluoxetine (5 mg/kg/day), gallein (10 mg/kg/day) or indomethacin (2.5 mg/kg/day) were administered daily by ip injection. Drug treatment was initiated 8 weeks following DMM to determine the role of GRK2 signaling in the progression of OA. Prior to histologic processing, harvested knee joints were evaluated via micro-CT using a Scanco vivaCT40 scanner with a 55 kVp source as we have previously described. Joints were scanned at a resolution of 10.5 μm. General 3-dimensional images were obtained with simple segmentation at a Scanco threshold of 260, which was determined on inspection of the first specimen. This translates to a linear attenuation coefficient of 2.080 cm-1. Knee analysis starts by locating the highest section of the tibial plateau and defining that as the center point. All bone is captured 100 slices in each direction from the center point. The patella and fibula, if present in that region, are excluded. The fabellae are considered part of the knee and are included. A threshold of 260 (2.080 cm′) is used to analyze bone volume and microarchitecture. Tibia subchondral analysis begins by starting at the knee and proceeding distally until the cortical shell is penetrated. All non-cortical bone is included, both solid and trabecular. Osteophytes were identified as protrusions and counted using cross-sectional images of the 3-dimensional stacks. Subchondral plate thickness was calculated by determining the number of cross-sections forming the subchondral plate and multiplying it by section thickness (C. Huesa, Annals of the rheumatic diseases, 75, 1989-1997 (2016)).

DMM mice [2] = assay: DMM mice treated with PTH, paroxetine or their combination: histology and histomorphometry (Example 1); type: in vivo, mouse; conditions: treatment week 8 to 12, PTH sc 40 μg/kg/day, paroxetine ip 5 mg/kg/day
Procedure: Methods: Destabilization of the medial meniscus (DMM) surgery was used to simulate clinical post-traumatic OA. First, we determined the role of GRK2 inhibition in PTH1R Gas-cAMP signaling: 12 week old male mice underwent sham or DMM surgery and were treated with either vehicle or the GRK2 inhibitor “paroxetine” (ip, 5 mg/kg/day), treatment was initiated at the time of surgery and continued daily until 8 weeks. Knees were harvested and articular cartilage was obtained for ex vivo analysis of Gas activity. In ex vivo culture, cartilage explants were treated with PTH as an agonist to stimulate PTH1R-Ga-cAMP signaling. Thirty minutes following PTH stimulation, cartilage tissue was homogenized and cAMP levels were measured. Then, we determined the role of GRK2 inhibition in recovering or even potentiating PTH1R signaling in OA cartilage: 12 week old male mice underwent sham or DMM surgery, and received treatment with vehicle, PTH (sc, 40 μg/kg/day) alone, the GRK2 inhibitor “paroxetine3” (ip, 5 mg/kg/day) alone, or their combination. Treatment was initiated at week 8 following DMM surgery, where OA is in progress, and continued until week 12 where mice were sacrificed. Knees were harvested, paraffin embedded, sectioned and stained with safranin-o and fast green for histological evaluation, OARSI scoring, and histomorphometric analysis. Results are expressed as mean values+s.e.m. with an N=5-8 mice per experimental group. Statistical analyses were performed using one ANVOA with P<0.05 representing statistical significance.

DMM mice [3] = assay: Response threshold to mechanical pain stimulus in DMM mice; type: in vivo, mouse; conditions: daily treatment week 8 to 12, measured 12 weeks following DMM
From the text: Paroxetine attenuates pain sensitivity of DMM mice. Response threshold to mechanical pain stimulus measured in sham mice and DMM mice 12 weeks following DMM. DMM mice received respective daily treatments from week 8 until week 12 following DMM: vehicle (V) or Paroxetine (Px). *P<0.05 & ***P<0.001.

DMM mice [4] = assay: Gait (stride length) in DMM mice; type: in vivo, mouse; conditions: daily treatment week 8 to 12, measured 12 weeks following DMM
From the text: Paroxetine normalizes changes in the gait of DMM mice. Stride length in centimeters measured for sham mice and DMM mice 12 weeks following DMM. DMM mice received respective daily treatments from week 8 until week 12 following DMM: vehicle (V) or Paroxetine (Px). **P<0.01 & ***P<0.001

With `O=C1OC2(c3ccccc31)c1ccc(O)c(O)c1Oc1c2ccc(O)c1O` [gallein] the “ADAMTS5 mRNA expression (RT-qPCR)” value (human OA cartilage) was “did not achieve statistical significance”, the “ADAMTS5 protein expression (IF staining)” value (human OA cartilage) was “attenuated” and the “GRK2 mRNA expression (RT-qPCR)” value (human OA cartilage) was “not affected”. For the same compound, the “GRK2 protein expression (IF staining)” value (human OA cartilage) was “reduced”, the “MMP13 mRNA expression (RT-qPCR)” value (human OA cartilage) was “did not achieve statistical significance” and the “MMP13 protein expression (IF staining)” value (human OA cartilage) was “attenuated”. The higher osteophyte number (DMM mice [1]) was “alleviated”, the “higher subchondral bone mineral density (BMD)” value (DMM mice [1]) was “alleviated” and the “higher subchondral bone volume density (BV/TV)” value (DMM mice [1]) was “alleviated”. For the same compound, the “higher subchondral plate thickness” value (DMM mice [1]) was “alleviated”, the “higher subchondral trabecular thickness (Tb.Th)” value (DMM mice [1]) was “alleviated” and the “increased knee bone volume (BV)” value (DMM mice [1]) was “ameliorated”. The “increased knee total volume (TV)” value (DMM mice [1]) was “ameliorated”.

In the case of `Fc1ccc([C@@H]2CCNC[C@H]2COc2ccc3c(c2)OCO3)cc1` [paroxetine], the chondrocyte number (DMM mice [2]) is reported as “increased”, the “number of matrix-producing (anabolic) chondrocytes” value (DMM mice [2]) is reported as “particular increase” and the uncalcified cartilage area (DMM mice [2]) is reported as “increased”. For the same compound, the “ADAMTS5 mRNA expression (RT-qPCR)” value (human OA cartilage) was “significantly inhibited”, the “ADAMTS5 protein expression (IF staining)” value (human OA cartilage) was “significantly inhibited” and the “GRK2 mRNA expression (RT-qPCR)” value (human OA cartilage) was “not affected”. For the same compound, the “GRK2 protein expression (IF staining)” value (human OA cartilage) was “reduced”, the “MMP13 mRNA expression (RT-qPCR)” value (human OA cartilage) was “significantly inhibited” and the “MMP13 protein expression (IF staining)” value (human OA cartilage) was “significantly inhibited”. For the same compound, the higher osteophyte number (DMM mice [1]) was “alleviated”, the “higher subchondral bone mineral density (BMD)” value (DMM mice [1]) was “alleviated” and the “higher subchondral bone volume density (BV/TV)” value (DMM mice [1]) was “alleviated”. For the same compound, the “higher subchondral plate thickness” value (DMM mice [1]) was “alleviated”, the “higher subchondral trabecular thickness (Tb.Th)” value (DMM mice [1]) was “alleviated” and the “increased knee bone volume (BV)” value (DMM mice [1]) was “ameliorated”. For the same compound, the “increased knee total volume (TV)” value (DMM mice [1]) was “ameliorated”, the “pain sensitivity (response threshold to mechanical pain stimulus)” value (DMM mice [3]) was “attenuates” and the “changes in the gait (stride length)” value (DMM mice [4]) was “normalizes”.
